{
  "source": "patent US5861439A",
  "about": "“Method for enhanced electrotransport agent delivery” (priority 1994, dated 1999)",
  "key": {"human cadaver skin [1]": {"tested_on": "human cadaver skin", "conditions": "for increase in the rate of delivery of ketoprofen: electrotransport, versus control (no enhancer); for Normalized Skin Resistance: ketoprofen electrotransport, steady state, divided by control (no enhancer), 100 μA/cm^2, 32° C.", "experimental": "(§1) Skin strips having a thickness of 1 mm were removed from a human cadaver with an electric dermatome. These skin strips were placed in polyethylene bags, sealed and placed in a refrigerator at 4° C. for temporary storage. Prior to use in an electrotransport cell, the skin strips were placed in 1 liter beakers containing water at 60° C. for about 90 seconds, and gently stirred. The skin strips were then removed, and placed onto the absorbent side of a piece of BENCHKOTE fabric with their dermis side down. The epidermis was removed from each strip with a round-tip spatula, and flat tipped tweezers to retain the dermis. Each epidermis, stratum corneum side up, was then transferred to a 5 cm deep PYREX glass tray filled with water. Each floating epidermis was stretched essentially flat, and then removed from the water, and 2.2 cm diameter disks of each epidermis were punched out of areas having no observable surface damage. The disks were stored at 4° C. in a sealed container with water droplets to maintain their moisture.\n(§2) The disks were mounted between the donor and receptor compartments, with the stratum corneum side facing the donor compartment, of a 2-compartment polycarbonate electrotransport permeation cell. The volume of each compartment was about 2 mL and the area between the two compartments, ie, the exposed area for transport, was about 1.26 cm^2.\n(§3) An aqueous solution of the drug being transdermally delivered and the selected permeation enhancer composition, if any, was placed in the donor compartment. Dulbecco's phosphate buffered saline (approximately 0.15N NaCl, pH 7.0) was placed in the receptor compartment.\n(§4) The rate of transport of drug and the electrical resistance of the skin were monitored throughout the experiments while applying an electric current.\n(§5) The cell was maintained at 32° C. by a Haake Model D1 heating block/water bath. The electrodes were connected to a galvanostat, which applied a constant current of 126 μA (current density of 100 μA/cm^2) and monitored the voltage drop across the skin by placing two Ag/AgCl junction reference electrodes, one each in the donor and receptor solutions, and measuring the voltage difference (AV) between the electrodes.\n(§6) The resistance of the skin (R) was obtained from Ohm's law:\n(§7) where i equals the applied current (ie, 126 μA).\nThe following experiments were conducted to assess the effect of one composition of the invention, containing ethanol and dodecanol, on the transdermal delivery of sodium ketoprofen (ketoprofen anions) by electrotransport from a cathodic electrode. The electrotransport delivery of ketoprofen in the presence of various enhancers was assessed side-by-side for comparative purposes. The enhancers used were as follows: (i) ethanol alone; (ii) dodecanol alone; (iii) no enhancer; (iv) ethanol and dodecanol. […] A silver chloride composite polymer electrode (cathode) was placed in the donor compartment, and a silver foil electrode (anode) was placed in the receptor compartment.\nEach experiment was started by connecting the power source to the electrodes, and samples were automatically taken from the receptor compartment every one to two hours, except for overnight experimentation, using an Isco Model 2230 autosampler and a metering pump. The concentration of ketoprofen in the samples was determined by high performance liquid chromatography (HPLC) using a Shimadzu Model SCL-6B chromatograph. Each run was conducted in triplicate, including the control, to minimize errors. All cells were set-up with tissue from the same cadaver. The selected permeation enhancer composition was placed in the donor compartment, while the control cell's donor compartment contained no enhancer."}, "human cadaver skin [2]": {"tested_on": "human cadaver skin", "conditions": "for Normalized Skin Resistance (after 5 hrs): metoclopramide electrotransport, n=3, 100 μA/cm^2, 32° C.", "experimental": "as §1, §2, §3, §4, §5, §6, §7\nThe experimental conditions were identical to those described in Example 1, except an aqueous solution of metoclopramide HCl, instead of sodium ketoprofen, was placed in the donor compartment. In addition, the silver chloride cathode was placed in the receptor compartment and the silver foil anode was placed in the donor compartment since metoclopramide ions are cationic as opposed to ketoprofen ions which are anionic. The concentration of metoclopramide in the donor solution was about 100 mg metoclopramide/mL, and saline pH 7 was placed in the receptor compartment. The system was maintained at 32° C. and a constant electric current of 100 μA/cm^2 was applied throughout the procedure.\nThe mass flux and skin resistance values were normalized versus the control. […] The skin resistance (which was calculated from the measured cell voltage ΔV using Ohm's law, […]) was also normalized with respect to the value obtained by electrotransport of metoclopramide in the absence of any permeation enhancer (rightmost column)."}, "skin [3]": {"tested_on": "skin", "conditions": "relative to sotalol alone (control); no current; cited from earlier work"}, "skin [4]": {"tested_on": "skin", "conditions": "cited from earlier work; for rate of electrotransport of sotalol (in words): compared to electrotransport without DDAA or azone (control)"}},
  "note": "Like-named read-outs stand apart in the source and are kept apart here.",
  "data": [
    {"compound": "CCCCCCCCCCCCO", "note": "[Dodecanol, dodecanol]", "values": [
      {"measurement": "reduction in skin resistance", "setting": "human cadaver skin [1]", "result": "~60", "unit": "%"},
      {"measurement": "increase in the rate of delivery of ketoprofen", "setting": "human cadaver skin [1]", "result": 93, "unit": "%"},
      {"measurement": "Normalized Skin Resistance", "setting": "human cadaver skin [1]; enhancer dodecanol <100 mM", "result": 0.39}
    ]},
    {"compound": "CCO", "note": "[Ethanol, ethanol]", "values": [
      {"measurement": "reduction in skin resistance", "setting": "human cadaver skin [1]", "result": "> 50", "unit": "%"},
      {"measurement": "increase in the rate of delivery of ketoprofen", "setting": "human cadaver skin [1]", "result": 24, "unit": "%"},
      {"measurement": "Normalized Skin Resistance", "setting": "human cadaver skin [1]; enhancer 25% v/v ethanol", "result": 0.47},
      {"measurement": "effect of difference in ethanol concentration (25% v/v alone, 20% v/v with dodecanol)", "setting": "human cadaver skin [1]; in words, said to be confirmed in Example 2", "result": "does not significantly alter its effect"},
      {"measurement": "mass flux of metoclopramide (in words)", "setting": "human cadaver skin [2]", "result": "not to enhance, but to actually decrease, the mass flux of metoclopramide"},
      {"measurement": "Normalized Skin Resistance (after 5 hrs)", "setting": "human cadaver skin [2]; ethanol 10 wt %, versus no enhancer", "result": 1.32},
      {"measurement": "Normalized Skin Resistance (after 5 hrs)", "setting": "human cadaver skin [2]; ethanol 20 wt %, versus no enhancer", "result": 1.13},
      {"measurement": "Normalized Skin Resistance (after 5 hrs)", "setting": "human cadaver skin [2]; ethanol 30 wt %, versus no enhancer", "result": 1.26},
      {"measurement": "resistance of the skin during electrotransport delivery of metoclopramide (in words)", "setting": "human cadaver skin [2]; ethanol alone, versus no enhancer", "result": "increase the resistance of the skin"}
    ]},
    {"compound": "CCCCCCCCCCCCN1CCCCCC1=O", "note": "[azone]", "values": [
      {"measurement": "rate of passive permeation of sotalol (in words)", "setting": "skin [3]", "result": "increase the rate of passive permeation"},
      {"measurement": "rate of electrotransport of sotalol (in words)", "setting": "skin [4]", "result": "actually reduced the rate of electrotransport delivery of the agent"}
    ]},
    {"compound": "CC(C)NCC(O)c1ccc(NS(C)(=O)=O)cc1", "note": "(centres unmarked) [sotalol]", "values": [
      {"measurement": "rate of delivery of sotalol with passage of an electric current (in words)", "setting": "skin [4]; compared to its passive rate (control)", "result": "increase the rate of delivery of sotalol compared to that of its passive rate"}
    ]},
    {"compound": "N, N-dimethylamino acetate [DDAA]", "values": [
      {"measurement": "rate of passive permeation of sotalol (in words)", "setting": "skin [3]", "result": "increase the rate of passive permeation"},
      {"measurement": "rate of electrotransport of sotalol (in words)", "setting": "skin [4]", "result": "actually reduced the rate of electrotransport delivery of the agent"}
    ]}
  ]
}
